The source of these data is patent US8013018B2, “Aminoindane derivative or salt thereof” (Astellas Pharma Inc., priority 2006, dated 2011).

Each structure is given as a SMILES string. Structures can show the parent of a compound that is named as a salt.

For the assay, the target named is NMDA receptor. As to the kind of experiment: [3H] MK-801 binding test on rat brain membrane specimen. The note with it: read-out: Ki (NMDA receptor affinity). As to the method:
1) Preparation of Specimens of Rat Meninges:
The whole brain was taken out from 30 10-week SD rats (Nippon SLC), and the cerebellum was removed from them. A 0.32 M sucrose solution was added to the part containing the cerebrum, cut in a mixer, and homogenized with a Teflon™ (trademark) homogenizer. This was centrifuged at 2800 rpm and 4° C. for 15 minutes, and the resulting supernatant was again centrifuged at 15000 g and 4° C. for 20 minutes. The pellets were suspended in 50 mM Tris-HCL (pH 7.5) containing 0.08% Triton X-100, and kept statically on ice for 30 minutes, then centrifuged at 15000 g and 4° C. for 20 minutes. The pellets were suspended in 50 mM Tris-HCl (pH 7.5) added thereto, and centrifuged at 15000 g and 4° C. for 20 minutes. 50 mM Tris-HCl (pH 7.5) was again added to the pellets, and centrifuged in the same manner as before. The pellets were suspended in 20 ml of 50 mM Tris-HCl (pH 7.5) added thereto, and homogenized with the Teflon™ (trademark) homogenizer. The membrane specimen was divided into small tubes and stored in a deep freezer (−80° C.). Before use, this was washed twice with 5 mM Tris-HCl (pH 7.5) of five times that of the membrane specimen. Its concentration was controlled at 1 mg protein/ml with 5 mM Tris-HCl (pH 7.5) added to it, and this was used for assay.
2) [^3H] MK-801 Binding Assay:
50 μl of the rat membrane specimen (1 mg protein/ml) was added to a solution of a test compound dissolved in 1 μl of DMSO.
Turning to `CCC1(CC)Cc2ccccc2C1(N)c1ccccc1` (stereo not drawn) [Example 2], the Ki amounted to 0.4 µM.

As to `CNC1(c2ccccc2)c2ccccc2CC1(C)C` (stereo not drawn) [Example 10, N,2,2-trimethyl-1-phenylindan-1-amine hydrochloride], the Ki came out at 0.4 µM.

Take `CC1(C)Cc2ccccc2C1(N)c1ccc(F)cc1` (stereo not drawn) [Example 17, 1-(4-Fluorophenyl)-2,2-dimethylindan-1-amine monofumarate]: the Ki came out at 0.8 µM.

As to `COc1ccccc1C1(N)c2ccccc2CC1(C)C` (stereo not drawn) [Example 18, 1-(2-Methoxyphenyl)-2,2-dimethylindan-1-amine hydrochloride], the Ki worked out at 0.3 µM.

In the case of `CC1(C)Cc2ccccc2C1(N)c1cccc(O)c1` (stereo not drawn) [Example 21, 1-(3-Hydroxyphenyl)-2,2-dimethylindan-1-amine], the Ki amounted to 0.1 µM.

For the compound `CC1(C)Cc2ccccc2C1(C)N` (stereo not drawn) [Example 23, 1,2,2-Trimethylindan-1-amine hydrochloride], the Ki was determined as 0.9 µM.

On to `Cc1ccc2c(c1)C(C)(N)C(C)(C)C2` (stereo not drawn) [Example 36, 1,2,2,6-Tetramethylindan-1-amine hydrochloride], for which the Ki came to 0.4 µM.

On to `COc1ccc2c(c1)C(C)(N)C(C)(C)C2` (stereo not drawn) [Example 38, 6-Methoxy-1,2,2-trimethylindan-1-amine hydrochloride], for which the Ki worked out at 0.3 µM.

As to `CC1(C)Cc2ccc(F)cc2C1(C)N` (stereo not drawn) [Example 41, 6-Fluoro-1,2,2-trimethylindan-1-amine hydrochloride], the Ki was determined as 0.8 µM.

Turning to `CC1(C)Cc2ccc(Br)cc2C1(C)N` (stereo not drawn) [Example 42, 6-Bromo-1,2,2,-trimethylindan-1-amine hydrochloride], the Ki worked out at 0.3 µM.

Take `CC1(C)Cc2ccc(C(F)(F)F)cc2C1(C)N` (stereo not drawn) [Example 43, 6-Trifluoromethyl-1,2,2-trimethylindan-1-amine hydrochloride]: the Ki was found to be 0.3 µM.

For `CC1(C)Cc2ccc(C#N)cc2C1(C)N` (stereo not drawn) [Example 44, 6-Cyano-1,2,2-trimethylindan-1-amine hydrochloride], the Ki was 0.6 µM.

On to `CC1(C)Cc2cccc(F)c2C1(C)N` (stereo not drawn) [Example 48, 7 Fluoro-1,2,2-trimethylindan-1-amine hydrochloride], for which the Ki was found to be 0.6 µM.

As to `CCC1(N)c2cccc(C)c2CC1(C)C` (stereo not drawn) [Example 59], the inhibition constant Ki came out at 0.9 µM.

With `CCCCC1(N)c2ccccc2CC1(C)C` (stereo not drawn) [Example 61], the Ki was 0.5 µM.

The Ki is the equilibrium dissociation constant of an inhibitor or competing ligand from its target.
